According to ChEMBL document CHEMBL5505979, “Novel aminothiazoximone-corbelled ethoxycarbonylpyrimidones with antibiofilm activity to conquer Gram-negative bacteria through potential multitargeting effects” (Eur J Med Chem, 2024):
In brackets after ≈: the same amount, converted by molar mass. Activity calls are given as the source filed them. No cut-off for these calls is given here.

What was measured:
Acinetobacter baumannii [1] = assay: Reduction of biofilm virulent factors in Acinetobacter baumannii assessed as decrease in extracellular polymeric substances (EPS) by measuring optical density at 490 nm at 2 times of MIC concentration by congo red binding assay (reference value: 0.188 to 0.192); format: functional
Cell membrane [2] = assay: Induction of physical destruction of cell membrane in Escherichia coli ATCC 25922 assessed as leakage of protein at 1/4 to 8 times of MIC concentration by Coomassie blue quantitative assay; format: cell membranes
Acinetobacter baumannii [3] = assay: Bactericidal activity against Acinetobacter baumannii assessed as bacterial killing at 1 to 8 times of MIC concentration measured upto 8 hrs by time-kill kinetics assay; format: functional, organism-based
Calf thymus DNA = assay: Binding affinity to calf thymus DNA assessed as compound/DNA binary complex by measuring increase in absorption at 260 nm by UV-vis/fluorescence spectroscopy; format: nucleic-acid assay; details: Bos taurus
Acinetobacter baumannii [4] = assay: Anti-bacterial activity against Acinetobacter baumannii assessed as growth inhibition by measuring optical density measured at 1 time of MIC in presence of 1/8 times of MIC of norfloxacin by Checkerboard assay (reference value: 0.157); format: functional
Acinetobacter baumannii [5] = assay: Anti-bacterial activity against Acinetobacter baumannii assessed as growth inhibition by measuring optical density measured at 2 time of MIC in presence of 2 times of MIC of norfloxacin by Checkerboard assay (reference value: 0.155); format: functional
Acinetobacter baumannii [6] = assay: Anti-bacterial activity against Acinetobacter baumannii assessed as growth inhibition by measuring optical density measured at 1/4 time of MIC in presence of 2 times of MIC of norfloxacin by Checkerboard assay (reference value: 0.152); format: functional
Escherichia coli [7] = assay: Induction of ROS accumulation in Escherichia coli ATCC 25922 assessed as decrease in GSH activity by measuring reduced GSH to convert to oxidized GSSG at 1/4 to 2 times of MIC by Ellmans metho; format: functional, organism-based
Pseudomonas aeruginosa [8] = assay: Anti-bacterial activity against Pseudomonas aeruginosa ATCC 9027 assessed as inhibition of bacterial growth; format: functional
Acinetobacter baumannii [9] = assay: Anti-bacterial activity against Acinetobacter baumannii assessed as fractional inhibitory concentration measured upto 9 hrs in presence of norfloxacin; format: functional
Acinetobacter baumannii [10] = assay: Anti-bacterial activity against Acinetobacter baumannii assessed as growth inhibition by measuring optical density measured at 1/4 time of MIC in presence of 1/4 times of MIC of norfloxacin by Checkerboard assay (reference value: 0.152); format: functional
Acinetobacter baumannii [11] = assay: Anti-bacterial activity against Acinetobacter baumannii assessed as growth inhibition by measuring optical density measured at 4 time of MIC in presence of 1/8 times of MIC of norfloxacin by Checkerboard assay (reference value: 0.152); format: functional
Acinetobacter baumannii [12] = assay: Anti-bacterial activity against Acinetobacter baumannii assessed as growth inhibition by measuring optical density measured at 4 time of MIC in presence of 2 times of MIC of norfloxacin by Checkerboard assay (reference value: 0.152); format: functional
Escherichia coli [13] = assay: Reduction of biofilm virulent factors in Escherichia coli ATCC 25922 assessed as decrease in extracellular polymeric substances (EPS) by measuring optical density at 490 nm at 1/4 times of MIC concentration by congo red binding assay (reference value: 0.028 to 0.031); format: functional
Pseudomonas aeruginosa [14] = assay: Anti-bacterial activity against Pseudomonas aeruginosa ATCC 15442 assessed as inhibition of bacterial growth; format: functional; details: Pseudomonas aeruginosa, ATCC 15442; read-out: MIC
Acinetobacter baumannii [15] = assay: Anti-bacterial activity against Acinetobacter baumannii assessed as bacterial mortality at 1 to 4 MIC concentration by propidium iodide based fluorescence microscopy relative to control; format: functional, organism-based
Acinetobacter baumannii [16] = assay: Anti-bacterial activity against Acinetobacter baumannii assessed as growth inhibition by measuring optical density measured at 1/2 time of MIC in presence of 1/2 times of MIC of norfloxacin by Checkerboard assay (reference value: 0.152); format: functional
Escherichia coli [17] = assay: Anti-bacterial activity against Escherichia coli ATCC 25922 assessed as bacterial mortality at 1 to 4 MIC concentration by propidium iodide based fluorescence microscopy relative to control; format: functional, organism-based
Escherichia coli [18] = assay: Reduction of biofilm virulent factors in Escherichia coli ATCC 25922 assessed as decrease in extracellular polymeric substances (EPS) at 1/2 times of MIC concentration by congo red binding assay relative to control; format: functional; set-up: scale not given: the % may be the effect or the level left
Cell membrane [19] = assay: Induction of physical destruction of cell membrane in Acinetobacter baumannii assessed as leakage of nucleic acid by measuring absorbance of 260 nm at 1/4 to 8 times of MIC concentration; format: cell membranes
Escherichia coli [20] = assay: Anti-bacterial activity against Escherichia coli ATCC 25922 assessed as growth inhibition by measuring optical density measured at 2 time of MIC in presence of 2 times of MIC of norfloxacin by Checkerboard assay (reference value: 0.128); format: functional
Acinetobacter baumannii [21] = assay: Reduction of biofilm virulent factors in Acinetobacter baumannii assessed as decrease in extracellular polymeric substances (EPS) by measuring optical density at 490 nm at 1 times of MIC concentration by congo red binding assay (reference value: 0.188 to 0.192); format: functional
Acinetobacter baumannii [22] = assay: Reduction of biofilm virulent factors in Acinetobacter baumannii assessed as decrease in extracellular polymeric substances (EPS) at 4 times of MIC concentration by congo red binding assay relative to control; format: functional; set-up: scale not given: the % may be the effect or the level left
Acinetobacter baumannii [23] = assay: Anti-bacterial activity against Acinetobacter baumannii assessed as inhibition of bacterial growth measured after 20 passages at sub-MIC concentration by multiple resistance study; format: functional, organism-based
Escherichia coli [24] = assay: Antibiofilm activity against Escherichia coli ATCC 25922 assessed as inhibition rate of bio-film formation at 0.5 times of MIC concentration by Crystal violet assay relative to control; format: functional
Acinetobacter baumannii [25] = assay: Anti-bacterial activity against Acinetobacter baumannii R674 assessed as inhibition of bacterial growth; format: functional
Acinetobacter baumannii [26] = assay: Anti-bacterial activity against Acinetobacter baumannii assessed as growth inhibition by measuring optical density measured at 1/2 time of MIC in presence of 1 times of MIC of norfloxacin by Checkerboard assay (reference value: 0.152); format: functional
Escherichia coli [27] = assay: Anti-bacterial activity against Escherichia coli ATCC 25922 assessed as growth inhibition by measuring optical density measured at 1 time of MIC in presence of 1/2 times of MIC of norfloxacin by Checkerboard assay (reference value: 0.125); format: functional
Escherichia coli [28] = assay: Antibiofilm activity against Escherichia coli ATCC 25922 assessed as reduction of self-aggregation; format: functional, organism-based
[29] = Hemolysis in human RBC assessed as hemolysis rate at 128 times of MIC concentration for 6 hrs; format: toxicity, cell-based, Erythrocyte; details: red blood cells, read-out: Activity
Escherichia coli [30] = assay: Anti-bacterial activity against Escherichia coli ATCC 25922 assessed at fractional inhibitory concentration measured upto 9 hrs in presence of norfloxacin; format: functional
Acinetobacter baumannii [31] = assay: Induction of intracellular ROS accumulation in Acinetobacter baumannii assessed as larger green fluorescence densities at 1/4 to 2 times of MIC by microscopic imaging assay; format: functional, organism-based
Acinetobacter baumannii [32] = assay: Reduction of biofilm virulent factors in Acinetobacter baumannii assessed as decrease in extracellular polymeric substances (EPS) by measuring optical density at 490 nm at 1/4 times of MIC concentration by congo red binding assay (reference value: 0.188 to 0.192); format: functional

With `CCCCc1nc(Cl)c(C2NC(=O)NC(CN3CCN(C(=O)/C(=N/OC)c4csc(N)n4)CC3)=C2C(=O)OCC)[nH]1` (stereo not drawn) the OD (Acinetobacter baumannii [1]) was 0.13, the Activity (Cell membrane [2]) was “Active” and the Activity (Acinetobacter baumannii [3]) was “Active”. The Activity (Calf thymus DNA) was “Active”, the OD (Acinetobacter baumannii [4]) was 0.116 and the OD (Acinetobacter baumannii [5]) was 0.051. For the same molecule, the OD (Acinetobacter baumannii [6]) was 0.116, the Activity (Escherichia coli [7]) was “Active” and the MIC (Pseudomonas aeruginosa [8]) was 26 µM (≈ 15.8 µg/mL). The FIC (Acinetobacter baumannii [9]) was 0.5, the OD (Acinetobacter baumannii [10]) was 0.129 and the OD (Acinetobacter baumannii [11]) was 0.118. For the same molecule, the OD (Acinetobacter baumannii [12]) was 0.051, the OD (Escherichia coli [13]) was 0.12 and the MIC (Pseudomonas aeruginosa [14]) was 26 µM (≈ 15.8 µg/mL). The Activity (Acinetobacter baumannii [15]) was “Active”, the OD (Acinetobacter baumannii [16]) was 0.107 and the Activity (Escherichia coli [17]) was “Active”. For the same molecule, the Activity (Escherichia coli [18]) was 64.4%, the Activity (Cell membrane [19]) was “Active” and the OD (Escherichia coli [20]) was 0.052. The OD (Acinetobacter baumannii [21]) was 0.163, the Activity (Acinetobacter baumannii [22]) was 52.4% and the Activity (Acinetobacter baumannii [23]) was “Active”. For the same molecule, the “inhibition (INH)” value (Escherichia coli [24]) was 28.3%, the MIC (Acinetobacter baumannii [25]) was 7 µM (≈ 4.26 µg/mL) and the OD (Acinetobacter baumannii [26]) was 0.109. For the same molecule, the OD (Escherichia coli [27]) was 0.096, the Activity (Escherichia coli [28]) was “Dose-Dependent Effect” and the hemolysis at 6 h, 128 x MIC [29] was 0.8%. The FIC (Escherichia coli [30]) was 0.5, the Activity (Acinetobacter baumannii [31]) was “Active” and the OD (Acinetobacter baumannii [32]) was 0.178.
